Species: Rattus norvegicus
Test: DrugMatrix - Regimen: Daily Repeat
Type: toxicity, organism-based, Sprague-Dawley
Set-up: regimen Daily Repeat, gender Male, age 6-8 weeks
Details: in vivo, po, 1200 mg/kg, route oral GAVAGE, dose level High, […]; for ABSOLUTE BASOPHIL / ABSOLUTE EOSINOPHIL / ABSOLUTE LYMPHOCYTE / ABSOLUTE MONOCYTE / ABSOLUTE SEGMENTED NEUTROPHIL / BASOPHIL / EOSINOPHIL / ERYTHROCYTE COUNT / HEMATOCRIT / HEMOGLOBIN / LEUKOCYTE COUNT / LYMPHOCYTE / MEAN CORPUSCULAR HEMOGLOBIN / MEAN CORPUSCULAR HEMOGLOBIN CONCENTRATION / MEAN CORPUSCULAR VOLUME / MONOCYTE / NEUTROPHIL / NUCLEATED RED BLOOD CELLS / PLATELET COUNT: tissue Blood; for ALANINE AMINOTRANSFERASE / ALBUMIN / ALKALINE PHOSPHATASE / ASPARTATE AMINOTRANSFERASE / BLOOD UREA NITROGEN / CARBON DIOXIDE / CHLORIDE / CHOLESTEROL / CREATINE PHOSPHOKINASE / CREATININE / GLUCOSE / LACTATE DEHYDROGENASE / LIPASE / PHOSPHORUS / POTASSIUM / SODIUM / TOTAL BILIRUBIN / TOTAL PROTEIN / URIC ACID: tissue Plasma

## COC(=O)Nc1nc2cc(C(=O)c3ccc(F)cc3)ccc2[nH]1 [FLUBENDAZOLE]
72 h, time 3 day
  ABSOLUTE BASOPHIL: 0 CELLS/uL
  ABSOLUTE EOSINOPHIL: 0 CELLS/uL
  ABSOLUTE LYMPHOCYTE: 12475.33 CELLS/uL
  ABSOLUTE MONOCYTE: 43.67 CELLS/uL
  ABSOLUTE SEGMENTED NEUTROPHIL: 1014.33 CELLS/uL
  BASOPHIL: 0%
  EOSINOPHIL: 0%
  ERYTHROCYTE COUNT: 5.28 x10E6/uL
  HEMATOCRIT: 33.83%
  HEMOGLOBIN: 13.6 G/DL
  LEUKOCYTE COUNT: 13.53 x10E3/uL
  LYMPHOCYTE: 92%
  MEAN CORPUSCULAR HEMOGLOBIN: 25.87 pg
  MEAN CORPUSCULAR HEMOGLOBIN CONCENTRATION: 40.23 G/DL
  MEAN CORPUSCULAR VOLUME: 64.27 fL
  MONOCYTE: 0.33%
  NEUTROPHIL: 7.67%
  NUCLEATED RED BLOOD CELLS: 0.33 /100WBC
  PLATELET COUNT: 1168 x10E3/uL
  ALANINE AMINOTRANSFERASE: 71.67 u/L
  ALBUMIN: 4.33 G/DL
  ALKALINE PHOSPHATASE: 451.33 u/L
  ASPARTATE AMINOTRANSFERASE: 104.67 u/L
  BLOOD UREA NITROGEN: 12 mg/dL
  CARBON DIOXIDE: 29.33 mmol/L
  CHLORIDE: 100.67 MEQ/L
  CHOLESTEROL: 60.33 mg/dL
  CREATINE PHOSPHOKINASE: 400 u/L
  CREATININE: 0.19 mg/dL
  GLUCOSE: 163.67 mg/dL
  LACTATE DEHYDROGENASE: 208.67 u/L
  LIPASE: 9.67 u/L
  PHOSPHORUS: 12.3 mg/dL
  POTASSIUM: 6.63 MEQ/L
  SODIUM: 146.5 MEQ/L
  TOTAL BILIRUBIN: 0.17 mg/dL
  TOTAL PROTEIN: 5.7 G/DL
  URIC ACID: 1.9 mg/dL
120 h, time 5 day
  ABSOLUTE BASOPHIL: 0 CELLS/uL
  ABSOLUTE EOSINOPHIL: 0 CELLS/uL
  ABSOLUTE LYMPHOCYTE: 14800.33 CELLS/uL
  ABSOLUTE MONOCYTE: 0 CELLS/uL
  ABSOLUTE SEGMENTED NEUTROPHIL: 966.33 CELLS/uL
  BASOPHIL: 0%
  EOSINOPHIL: 0%
  ERYTHROCYTE COUNT: 5.99 x10E6/uL
  HEMATOCRIT: 36.1%
  HEMOGLOBIN: 14.47 G/DL
  LEUKOCYTE COUNT: 15.77 x10E3/uL
  LYMPHOCYTE: 93.67%
  MEAN CORPUSCULAR HEMOGLOBIN: 24.2 pg
  MEAN CORPUSCULAR HEMOGLOBIN CONCENTRATION: 40.07 G/DL
  MEAN CORPUSCULAR VOLUME: 60.33 fL
  MONOCYTE: 0%
  NEUTROPHIL: 6.33%
  NUCLEATED RED BLOOD CELLS: 0 /100WBC
  PLATELET COUNT: 1290.67 x10E3/uL
  ALANINE AMINOTRANSFERASE: 58.33 u/L
  ALBUMIN: 4.4 G/DL
  ALKALINE PHOSPHATASE: 432 u/L
  ASPARTATE AMINOTRANSFERASE: 93.33 u/L
  BLOOD UREA NITROGEN: 12.33 mg/dL
  CARBON DIOXIDE: 21.67 mmol/L
  CHLORIDE: 103.33 MEQ/L
  CHOLESTEROL: 77.67 mg/dL
  CREATINE PHOSPHOKINASE: 239.67 u/L
  CREATININE: 0.28 mg/dL
  GLUCOSE: 161 mg/dL
  LACTATE DEHYDROGENASE: 157.67 u/L
  LIPASE: 10 u/L
  PHOSPHORUS: 11.27 mg/dL
  POTASSIUM: 6.7 MEQ/L
  SODIUM: 144.17 MEQ/L
  TOTAL BILIRUBIN: 0.13 mg/dL
  TOTAL PROTEIN: 6.23 G/DL
  URIC ACID: 1.93 mg/dL

Reference: ChEMBL document CHEMBL3885881, “DrugMatrix”
